# From article PMC6600414, “Pharmacokinetics and Tissue Distribution of a Novel Bis-Chelated Gold(I) Diphosphine Compound, Bis(2,3-bis(tert-butylmethylphosphino)Quinoxaline)Aurate(I), in Rats” (Molecules, 2019)
# How the values were obtained:
# [1] = Pharmacokinetic study in SD rats after intravenous administration (plasma, LC-MS/MS); format: in vivo, Spague-Dawley rats; conditions: for AUC0-∞ / AUC0–t / C5min: rat plasma; for C5min: n = 6; for CL/F / V/F / t1/2: rat
# Experimental: (§1) The analyte of GC20 in rat biological samples was extracted using one-step protein precipitation. 50 μL of rat plasma or rat tissue homogenate was treated with 250 μL methanol containing IS (375 ng/mL). Vortex for 5 min to completely precipitate the proteins contained in the biological matrix. The mixture was then centrifuged at 18,000 rpm for 10 min (Sorvall Biofuge Stratos, Waltham, MA, USA), and 5 μL supernatant was injected for analysis.
# Twenty-four Spague-Dawley rats (twelve male and twelve female, 6–8 weeks old) were purchased from Shanghai SLAC Laboratory Animal Co., Ltd. (Shanghai, China). Animals were housed in an environment which controlled room temperature at 22 ± 2 °C and humidity at 55 ± 5%. Animals received 12/12 h light/dark cycle. Prior to the experiment, animals were fed a standard diet for one week to adapt to the laboratory conditions. Animal welfare and experimental procedures were strictly in accordance with the Guidelines of Animal Experiments of China Pharmaceutical University (Nanjing, China) and approved by the Animal Ethics Committee.
# All rats were randomly divided into four groups, each group of six (three male and three female in each group). Three groups consisted of rats that received a single intravenous administration of GC20 at a single dose of 1, 2 or 4 mg/kg, while the fourth group consisted of rats that received a dose of 2 mg/kg on seven consecutive days. The doses for single administration was determined according to the pharmacodynamic doses and toxic doses of GC20 in animals reported in the literature. The dose for multiple administrations was selected from the intermediate dose of a single administration. Dose solutions were prepared with 10% glucose solution. Before administration, rats fasted for 12 h. Blood samples (150 μL) were collected into tubes containing heparin (as an anticoagulant) via the ophthalmic veins at 0 min (i.e., before dosing), 5 min, 10 min, 15 min, 30 min, 1 h, 2 h, 4 h, 6 h, 8 h, 12 h, 24 h, 36 h, 48 h and 72 h. Then, the tubes were centrifuged at 8000 rpm for 5 min to separate the plasma. Plasma samples were then stored at −80 °C until further analysis. The pharmacokinetic parameters were calculated by Phoenix WinNonlin 6.0 (Pharsight, Mountain View, CA, USA).
# [2] = Tissue distribution in rats after single intravenous administration; format: in vivo, SD rats; conditions: single i.v. 2 mg/kg
# Experimental: as §1
# Eighteen SD rats (nine male and nine female, 6–8 weeks old) were purchased from Shanghai SLAC Laboratory Animal Co., Ltd. (Shanghai, China). After one week of adaptation, all rats were randomly divided into three groups, each group of six (three male and three female in each group). All rats were administrated GC20 solution at a single dose of 2 mg/kg vial the tail vein. The administered dose for tissue distribution was selected from the intermediate dose of single administration in the pharmacokinetic study. Blood samples were first collected via the ophthalmic veins and then rats were sacrificed to harvest tissues (i.e., heart, liver, spleen, lungs, kidneys, stomach, small intestine, brain, skin, muscle, fat, testes/ovaries, pancreas, thymus, and leg bones) promptly at 10 min, 2 h, or 12 h after dosing. To eliminate blood and other content, the tissues were thoroughly rinsed in water. Each tissue sample was homogenized into ten-fold volumes of water and then stored at −80 °C until further analysis.
# [3] = Stability of GC20 in rat plasma under different storage conditions; format: in vitro ADME; conditions: for Measured Concentration: n = 6
# Experimental: Extraction recovery was calculated by comparing the peak areas of extraction samples and post-extraction spiked samples. Matrix effect was evaluated by comparing the peak areas of post-extraction spiked samples and pure standard solutions. Post-extraction spiked samples were prepared as follows: Adding standard working solution into the mixed solution after protein precipitation of blank plasma to yield equivalent concentrations to corresponding extraction samples. Six replicates at three concentration levels were used for stability validation under a variety of storage and handling conditions. Samples were subjected to three freeze-thaw cycles, frozen at −80 °C for 7 days and 60 days, and storing at room temperature for 12 h. Post-preparative stability was evaluated by reanalyzing post-extraction samples kept in the autosampler at 4 °C for 48 h.
# [4] = tested on: broad spectrum of cancer cell lines, including cisplatin-resistant ones; design: method as in PMID 23362983; conditions: cited from earlier work
# [5] = design: method as in PMID 23362983; conditions: cited from earlier work
# [6] = multiple dose i.v. 2 mg/kg on seven consecutive days
# [7] = post-extraction samples, autosampler 48 h at 4 °C, spiked 50 ng/mL
# [8] = post-extraction samples, autosampler 48 h at 4 °C, spiked 1000 ng/mL
# [9] = rat plasma, frozen (−80 °C) for 7 days, spiked 50 ng/mL
# [10] = rat plasma, frozen (−80 °C) for 7 days, spiked 1000 ng/mL
# [11] = rat plasma, frozen (−80 °C) for 60 days, spiked 2 ng/mL
# [12] = rat plasma, frozen (−80 °C) for 60 days, spiked 50 ng/mL
# [13] = rat plasma, frozen (−80 °C) for 60 days, spiked 1000 ng/mL
# [14] = rat plasma, room temperature for 12 h, spiked 2 ng/mL
# [15] = rat plasma, room temperature for 12 h, spiked 50 ng/mL
# [16] = rat plasma, room temperature for 12 h, spiked 1000 ng/mL
# [17] = rat plasma, three freeze-thaw cycles, spiked 2 ng/mL
# [18] = rat plasma, three freeze-thaw cycles, spiked 50 ng/mL
# [19] = rat plasma, three freeze-thaw cycles, spiked 1000 ng/mL
structure (smiles),measurement,setting,value
"CC(C)(C)[P+]1(C)c2nc3ccccc3nc2[P+](C)(C(C)(C)C)[Au-3]12[P+](C)(C(C)(C)C)c1nc3ccccc3nc1[P+]2(C)C(C)(C)C (centres unmarked) [GC20, Bis(2,3-bis(tert-butylmethylphosphino)quinoxaline)aurate(I)]",AUC0-∞,[1]; [6],6936.7 ± 1005.4 ng·h/mL
same,AUC0–t,"[1]; multiple dose i.v. 2 mg/kg on seven consecutive days, 0–24 h",4551.2 ± 440.3 ^# h*ng/mL
same,C5min,[1]; [6],3645.8 ± 388.3 ng/mL
same,AUC0-∞,[1]; single dose i.v. 1 mg/kg,1457.0 ± 354.5 ng·h/mL
same,AUC0–t,"[1]; single dose i.v. 1 mg/kg, 0–72 h",1419.9 ± 345.5 ng·h/mL
same,C5min,[1]; single dose i.v. 1 mg/kg,1564.6 ± 387.5 ng/mL
same,AUC0-∞,[1]; single dose i.v. 2 mg/kg,2540.5 ± 308.6 ng·h/mL
same,AUC0–t,"[1]; single dose i.v. 2 mg/kg, 0–72 h",2466.4 ± 298.3 ng·h/mL
same,C5min,[1]; single dose i.v. 2 mg/kg,2657.6 ± 632.7 ng/mL
same,AUC0-∞,[1]; single dose i.v. 4 mg/kg,7562.2 ± 2709.6 ng·h/mL
same,AUC0–t,"[1]; single dose i.v. 4 mg/kg, 0–72 h",7237.1 ± 2695.0 ng·h/mL
same,C5min,[1]; single dose i.v. 4 mg/kg,5902.6 ± 1955.2 ng/mL
same,CL/F,[1]; [6],4.83 ± 0.67 mL/min/kg
same,V/F,[1]; [6],10.6 ± 1.7 L/kg
same,t1/2,[1]; [6],25.1 ± 3.0 h
same,CL/F,[1]; single dose i.v. 1 mg/kg,12 ± 3.17 mL/min/kg
same,V/F,[1]; single dose i.v. 1 mg/kg,11.89 ± 3.35 L/kg
same,t1/2,[1]; single dose i.v. 1 mg/kg,11.33 ± 0.57 h
same,CL/F,[1]; single dose i.v. 2 mg/kg,13.3 ± 1.67 mL/min/kg
same,V/F,[1]; single dose i.v. 2 mg/kg,13.00 ± 2.39 L/kg
same,t1/2,[1]; single dose i.v. 2 mg/kg,11.24 ± 0.75 h
same,CL/F,[1]; single dose i.v. 4 mg/kg,10 ± 4 mL/min/kg
same,V/F,[1]; single dose i.v. 4 mg/kg,11.11 ± 5.28 L/kg
same,t1/2,[1]; single dose i.v. 4 mg/kg,12.58 ± 1.80 h
same,accumulation after multiple doses,"[1]; rats, consecutive administration for 7 days",accumulated in rats after multiple doses
same,elimination half-life after multiple doses relative to single administration,"[1]; rats, i.v. 2 mg/kg for 7 days vs single administration",twice that after a single administration
same,elimination half-life,"[1]; rats, single administration of low, medium and high doses (i.v.)",11 to 13 h
same,tissue with the lowest concentration,"[2]; 10 min, 2 h, 12 h",lowest in the brain
same,tissues with the highest concentrations,"[2]; 10 min, 2 h, 12 h","lung, spleen, liver, and pancreas"
same,time of highest tissue concentration,"[2]; spleen, liver, kidney and heart",2 h
same,Measured Concentration,"[3]; post-extraction samples, autosampler 48 h at 4 °C, spiked 2 ng/mL",1.8 ± 0.0 ng/mL
same,Accuracy (RE%),[3]; [7],−9.5%
same,Measured Concentration,[3]; [7],45.2 ± 0.1 ng/mL
same,Accuracy (RE%),[3]; [8],−9.9%
same,Measured Concentration,[3]; [8],901.3 ± 17.1 ng/mL
same,Accuracy (RE%),"[3]; rat plasma, frozen (−80 °C) for 7 days, spiked 2 ng/mL",8.2%
same,Accuracy (RE%),[3]; [9],4.1%
same,Measured Concentration,[3]; [9],52.0 ± 0.9 ng/mL
same,Accuracy (RE%),[3]; [10],3.1%
same,Measured Concentration,[3]; [10],1030.5 ± 15.9 ng/mL
same,Accuracy (RE%),[3]; [11],−8.9%
same,Measured Concentration,[3]; [11],1.8 ± 0.1 ng/mL
same,Accuracy (RE%),[3]; [12],−5.4%
same,Measured Concentration,[3]; [12],47.3 ± 0.6 ng/mL
same,Accuracy (RE%),[3]; [13],−3.0%
same,Measured Concentration,[3]; [13],970.1 ± 27.3 ng/mL
same,Accuracy (RE%),[3]; [14],−9.2%
same,Measured Concentration,[3]; [14],1.8 ± 0.1 ng/mL
same,Accuracy (RE%),[3]; [15],2.0%
same,Measured Concentration,[3]; [15],51.0 ± 0.4 ng/mL
same,Accuracy (RE%),[3]; [16],2.1%
same,Measured Concentration,[3]; [16],1020.7 ± 23.6 ng/mL
same,Accuracy (RE%),[3]; [17],8.7%
same,Measured Concentration,[3]; [17],2.2 ± 0.1 ng/mL
same,Accuracy (RE%),[3]; [18],2.3%
same,Measured Concentration,[3]; [18],51.1 ± 0.3 ng/mL
same,Accuracy (RE%),[3]; [19],0.2%
same,Measured Concentration,[3]; [19],1001.8 ± 19.0 ng/mL
same,stability under typical sample storage and processing conditions,"[3]; rat plasma, room temperature 12 h, −80 °C 7 and 60 days, three freeze-thaw cycles, autosampler 4 °C 48 h",stable
same,inhibitory effect on proliferation,"[4]; broad spectrum of cancer cell lines, including cisplatin-resistant ones",strong inhibitory effect
same,selectivity between cancer cells and normal cells,[4],remarkable selectivity
same,toxicity in animal models as compared to cisplatin,[5],lower toxicity
